Measurements published in ChEMBL document CHEMBL1201862, “PubChem BioAssay data set” (2004).
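Briefly, cells in 96-well plates were exposed to five compound concentrations for 48 h, and endpoints were estimated by linear interpolation. The concentration for 50% growth inhibition is given as GI50.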 Active and inactive are the calls of the source. No stated cut-off is given here; in the data, active = GI50 up to about 1.1 µM and inactive = higher.

How the values were obtained:
Test in all cases: inhibition of tumour cell growth, NCI panel, 48 h
OVCAR-3 = system: OVCAR-3
MOLT-4 = system: MOLT-4
CCRF-CEM = system: CCRF-CEM
SNB-19 = system: SNB-19
SF-539 = system: SF-539
HOP-62 = system: HOP-62
K562 = system: K562
Malme-3M = system: Malme-3M
CAKI-1 = system: CAKI-1
DMS-114 = system: DMS-114
HT-29 = system: HT-29
RXF 393 = system: RXF 393
A549 = system: A549
OVCAR-5 = system: OVCAR-5
RPMI-8226 = system: RPMI-8226
NCI-H460 = system: NCI-H460
SK-MEL-5 = system: SK-MEL-5

Measured: GI50

[O-][S+](Cc1cc2c(cc1Br)OCO2)c1ccccc1 (stereo unspecified)
inactive: OVCAR-3 35.3 µM | MOLT-4 26.5 µM | CCRF-CEM 19.6 µM | SNB-19 > 100 µM | SF-539 32.7 µM | HOP-62 > 100 µM | K562 27.5 µM | Malme-3M 49.1 µM | CAKI-1 51.5 µM | DMS-114 23.2 µM | HT-29 34 µM | RXF 393 40.6 µM | A549 > 100 µM | OVCAR-5 > 100 µM | RPMI-8226 24.8 µM | NCI-H460 41.4 µM | SK-MEL-5 61.5 µM

CCCNC(=O)c1cc2ccccc2cc1C(=O)OC
inactive: OVCAR-3 > 100 µM | MOLT-4 > 100 µM | CCRF-CEM > 100 µM | SNB-19 > 100 µM | SF-539 > 100 µM | HOP-62 > 100 µM | K562 > 100 µM | Malme-3M > 100 µM | CAKI-1 > 100 µM | DMS-114 > 100 µM | HT-29 > 100 µM | A549 > 100 µM | OVCAR-5 > 100 µM | RPMI-8226 60.8 µM | NCI-H460 > 100 µM | SK-MEL-5 > 100 µM

Cc1nc(Nc2ccc(Cl)cc2)sc1C(=O)NNc1ccc([N+](=O)[O-])cc1[N+](=O)[O-]
inactive: OVCAR-3 19.3 µM | MOLT-4 15 µM | CCRF-CEM 17.8 µM | SNB-19 16.7 µM | SF-539 17.3 µM | HOP-62 12.2 µM | K562 16.8 µM | Malme-3M 20.7 µM | CAKI-1 23.6 µM | DMS-114 14.6 µM | RXF 393 16.3 µM | A549 16.6 µM | OVCAR-5 16.3 µM | RPMI-8226 18.2 µM | NCI-H460 18 µM | SK-MEL-5 15.6 µM

Cc1cc(NS(=O)(=O)c2ccc(NC(=O)c3cccn4c(=O)c5ccccc5nc34)cc2)no1
inactive: OVCAR-3 > 100 µM | MOLT-4 > 100 µM | CCRF-CEM > 100 µM | SNB-19 > 100 µM | SF-539 > 100 µM | HOP-62 > 100 µM | K562 > 100 µM | Malme-3M > 100 µM | CAKI-1 > 100 µM | DMS-114 > 100 µM | HT-29 > 100 µM | RXF 393 > 100 µM | A549 > 100 µM | RPMI-8226 > 100 µM | NCI-H460 > 100 µM | SK-MEL-5 > 100 µM

Cc1ncc(CCl)c2c1OC(C)(C)OC2
inactive: OVCAR-3 26.1 µM | MOLT-4 42.5 µM | CCRF-CEM 47.8 µM | SNB-19 63.8 µM | SF-539 33.6 µM | HOP-62 > 100 µM | K562 41.2 µM | Malme-3M 19.2 µM | DMS-114 > 100 µM | HT-29 52.2 µM | RXF 393 16 µM | A549 > 100 µM | OVCAR-5 22.3 µM | RPMI-8226 37.2 µM | NCI-H460 > 100 µM

Cc1nc(C(=O)O)c2ccccc2n1
inactive: OVCAR-3 > 100 µM | MOLT-4 > 100 µM | CCRF-CEM > 100 µM | SNB-19 > 100 µM | SF-539 > 100 µM | K562 > 100 µM | Malme-3M > 100 µM | CAKI-1 > 100 µM | DMS-114 > 100 µM | HT-29 > 100 µM | RXF 393 > 100 µM | A549 > 100 µM | OVCAR-5 > 100 µM | RPMI-8226 > 100 µM | NCI-H460 > 100 µM | SK-MEL-5 > 100 µM

CC(C)=CCC/C(C)=C/Cc1c(O)ccc2c1[nH]c1cc(O)c(C)cc12
inactive: OVCAR-3 5.73 µM | MOLT-4 6.07 µM | CCRF-CEM 7.55 µM | SNB-19 9.46 µM | SF-539 6.95 µM | HOP-62 7.62 µM | K562 9.38 µM | Malme-3M 13.6 µM | DMS-114 13.8 µM | HT-29 > 25 µM | RXF 393 14 µM | A549 8.87 µM | OVCAR-5 > 25 µM | RPMI-8226 17.8 µM | NCI-H460 11.9 µM | SK-MEL-5 16.6 µM

CCOc1ccc(OCC(=O)O)c2c1CCCC2=O
inactive: OVCAR-3 > 100 µM | MOLT-4 > 100 µM | CCRF-CEM > 10 µM | SNB-19 > 100 µM | SF-539 > 100 µM | HOP-62 > 100 µM | K562 > 10 µM | Malme-3M > 100 µM | DMS-114 > 100 µM | HT-29 > 100 µM | RXF 393 > 100 µM | A549 > 100 µM | OVCAR-5 > 100 µM | RPMI-8226 > 100 µM | NCI-H460 > 100 µM | SK-MEL-5 > 100 µM

CC(=O)OCc1ncccc1C(OC(C)=O)OC(C)=O
inactive: OVCAR-3 > 100 µM | MOLT-4 > 100 µM | CCRF-CEM > 100 µM | SNB-19 > 100 µM | SF-539 > 100 µM | HOP-62 > 100 µM | K562 > 100 µM | Malme-3M > 100 µM | CAKI-1 > 100 µM | DMS-114 > 100 µM | HT-29 > 100 µM | RXF 393 > 100 µM | A549 > 100 µM | OVCAR-5 > 100 µM | NCI-H460 > 100 µM | SK-MEL-5 > 100 µM

CCN(CC)CCOC(c1ccccc1)c1ccccc1.CCOC(=O)Nc1ccc(S(=O)(=O)OC)cc1.CCOC(=O)Nc1ccc(S(=O)(=O)OC)cc1.Nc1ccc(C(=O)O)c(O)c1
inactive: OVCAR-3 > 100 µM | MOLT-4 > 100 µM | CCRF-CEM > 100 µM | SNB-19 > 100 µM | SF-539 > 100 µM | HOP-62 > 100 µM | K562 > 100 µM | Malme-3M > 100 µM | CAKI-1 > 100 µM | DMS-114 > 100 µM | HT-29 > 100 µM | RXF 393 > 100 µM | A549 > 100 µM | OVCAR-5 > 100 µM | NCI-H460 > 100 µM | SK-MEL-5 > 100 µM

COc1ccc2cc3n(c(=O)c2c1)CCc1c-3cc(OC)c(OC)c1OC
inactive: OVCAR-3 > 100 µM | MOLT-4 > 100 µM | CCRF-CEM > 100 µM | SNB-19 > 100 µM | SF-539 60 µM | HOP-62 68.1 µM | K562 > 100 µM | Malme-3M > 100 µM | CAKI-1 > 100 µM | DMS-114 > 100 µM | HT-29 > 100 µM | A549 > 100 µM | OVCAR-5 > 100 µM | RPMI-8226 > 100 µM | SK-MEL-5 > 100 µM

CCOC(=O)C(C)Sc1nnc(COc2ccccc2OC)n1-c1ccccc1 (stereo unspecified)
inactive: OVCAR-3 > 100 µM | CCRF-CEM 53.7 µM | SNB-19 > 100 µM | SF-539 > 100 µM | HOP-62 > 100 µM | K562 30.1 µM | Malme-3M > 100 µM | CAKI-1 > 100 µM | DMS-114 14.1 µM | HT-29 75.5 µM | RXF 393 52.4 µM | A549 > 100 µM | OVCAR-5 > 100 µM | RPMI-8226 23.9 µM | NCI-H460 18.3 µM | SK-MEL-5 > 100 µM
